Literature values in patent publication US20100069490A1 (priority 2006, published 2010).
Where a name gives a salt, the structure may show the parent alone.

Tests used:
[1] = test system: bacteria
[2] = test system: lipase; conditions: pure or in combination with synergisms
[3] = test system: human polymorphonuclear leukocytes
[4] = in vivo and in vitro
[5] = test system: rhino mouse model; conditions: applied locally

CCOC(=O)CC(O)(CC(=O)OCC)C(=O)OCC [Triethyl citrate, Triethyl-2-hydroxypropan-1,2,3-tricarboxylate]
antibacterial activity [1]: has antibacterial activity
inhibition of hydrolysis of the triglycerides [2]: able to inhibit hydrolysis of the triglycerides

COc1ccc(-c2ccc3cc(C(=O)O)ccc3c2)cc1C12CC3CC(CC(C3)C1)C2 [Adapalene, 6-[3-(1-adamantyl)-4-methoxypheny]-2-naphthanoic acid]
inhibition of chemiotaxic and chemiokinetic response [3]: inhibits the chemiotaxic and chemiokinetic response
anti-inflammatory activity versus reference retinoids [4]: superior to the reference retinoids
comedolitic activity [5]: comedolitic
